Results from PubChem BioAssay (NCI).
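48-hour exposure; five concentrations; linearly interpolated endpoints. The concentration for full growth arrest is given as TGI.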

Key:
Assay in all cases: NCI tumour cell line growth inhibition, 48 h
786-0 renal = tested on: 786-0 renal
A549 NSCLC = tested on: A549 NSCLC
BT-549 breast = tested on: BT-549 breast
CAKI-1 renal = tested on: CAKI-1 renal
CCRF-CEM leukemia = tested on: CCRF-CEM leukemia
COLO 205 colon = tested on: COLO 205 colon
DU-145 prostate = tested on: DU-145 prostate
EKVX NSCLC = tested on: EKVX NSCLC
HCC-2998 colon = tested on: HCC-2998 colon
HCT-116 colon = tested on: HCT-116 colon
HCT-15 colon = tested on: HCT-15 colon
HL-60(TB) leukemia = tested on: HL-60(TB) leukemia
HOP-62 NSCLC = tested on: HOP-62 NSCLC
HOP-92 NSCLC = tested on: HOP-92 NSCLC
HS 578T breast = tested on: HS 578T breast
HT29 colon = tested on: HT29 colon
IGROV1 ovarian = tested on: IGROV1 ovarian
K-562 leukemia = tested on: K-562 leukemia
KM12 colon = tested on: KM12 colon
LOX IMVI melanoma = tested on: LOX IMVI melanoma
M14 melanoma = tested on: M14 melanoma
MALME-3M melanoma = tested on: MALME-3M melanoma
MCF7 breast = tested on: MCF7 breast
MDA-MB-231 breast = tested on: MDA-MB-231 breast
MDA-MB-435 = tested on: MDA-MB-435
MDA-N = tested on: MDA-N
MOLT-4 leukemia = tested on: MOLT-4 leukemia
NCI-H226 lung = tested on: NCI-H226 lung
NCI-H23 lung = tested on: NCI-H23 lung
NCI-H460 lung = tested on: NCI-H460 lung
NCI-H522 lung = tested on: NCI-H522 lung
NCI/ADR-RES ovarian = tested on: NCI/ADR-RES ovarian
OVCAR-3 ovarian = tested on: OVCAR-3 ovarian
OVCAR-4 ovarian = tested on: OVCAR-4 ovarian
OVCAR-8 ovarian = tested on: OVCAR-8 ovarian
PC-3 prostate = tested on: PC-3 prostate
RPMI-8226 leukemia = tested on: RPMI-8226 leukemia
RXF 393 renal = tested on: RXF 393 renal
SF-268 CNS = tested on: SF-268 CNS
SF-295 CNS = tested on: SF-295 CNS
SF-539 CNS = tested on: SF-539 CNS
SK-MEL-2 melanoma = tested on: SK-MEL-2 melanoma
SK-MEL-28 melanoma = tested on: SK-MEL-28 melanoma
SK-MEL-5 melanoma = tested on: SK-MEL-5 melanoma
SK-OV-3 ovarian = tested on: SK-OV-3 ovarian
SN12C renal = tested on: SN12C renal
SNB-19 CNS = tested on: SNB-19 CNS
SNB-75 CNS = tested on: SNB-75 CNS
SR leukemia = tested on: SR leukemia
SW-620 colon = tested on: SW-620 colon
T-47D breast = tested on: T-47D breast
TK-10 renal = tested on: TK-10 renal
U251 CNS = tested on: U251 CNS
UACC-257 melanoma = tested on: UACC-257 melanoma
UACC-62 melanoma = tested on: UACC-62 melanoma
UO-31 renal = tested on: UO-31 renal
A498 renal = tested on: A498 renal
ACHN renal = tested on: ACHN renal
OVCAR-5 ovarian = tested on: OVCAR-5 ovarian

Cn1c(=O)c2c(ncn2CCCCOc2ccc3c(c2)[n+]([O-])nc(N)[n+]3[O-])n(C)c1=O
TGI (786-0 renal): > 100 µM
TGI (A549 NSCLC): > 100 µM
TGI (BT-549 breast): 70.6 µM
TGI (CAKI-1 renal): > 100 µM
TGI (CCRF-CEM leukemia): > 100 µM
TGI (COLO 205 colon): 43.2 µM
TGI (DU-145 prostate): > 100 µM
TGI (EKVX NSCLC): > 100 µM
TGI (HCC-2998 colon): 52.6 µM
TGI (HCT-116 colon): > 100 µM
TGI (HCT-15 colon): > 100 µM
TGI (HL-60(TB) leukemia): > 100 µM
TGI (HOP-62 NSCLC): > 100 µM
TGI (HOP-92 NSCLC): 33.4 µM
TGI (HS 578T breast): > 100 µM
TGI (HT29 colon): > 100 µM
TGI (IGROV1 ovarian): 67.6 µM
TGI (K-562 leukemia): > 100 µM
TGI (KM12 colon): > 100 µM
TGI (LOX IMVI melanoma): > 100 µM
TGI (M14 melanoma): > 100 µM
TGI (MALME-3M melanoma): > 100 µM
TGI (MCF7 breast): > 100 µM
TGI (MDA-MB-231 breast): > 100 µM
TGI (MDA-MB-435): > 100 µM
TGI (MDA-N): > 100 µM
TGI (MOLT-4 leukemia): > 100 µM
TGI (NCI-H226 lung): 79.6 µM
TGI (NCI-H23 lung): > 100 µM
TGI (NCI-H460 lung): > 100 µM
TGI (NCI-H522 lung): > 100 µM
TGI (NCI/ADR-RES ovarian): > 100 µM
TGI (OVCAR-3 ovarian): > 100 µM
TGI (OVCAR-4 ovarian): > 100 µM
TGI (OVCAR-8 ovarian): > 100 µM
TGI (PC-3 prostate): > 100 µM
TGI (RPMI-8226 leukemia): > 100 µM
TGI (RXF 393 renal): 80.4 µM
TGI (SF-268 CNS): > 100 µM
TGI (SF-295 CNS): > 100 µM
TGI (SF-539 CNS): 70 µM
TGI (SK-MEL-2 melanoma): > 100 µM
TGI (SK-MEL-28 melanoma): > 100 µM
TGI (SK-MEL-5 melanoma): 22.1 µM
TGI (SK-OV-3 ovarian): > 100 µM
TGI (SN12C renal): > 100 µM
TGI (SNB-19 CNS): > 100 µM
TGI (SNB-75 CNS): 90 µM
TGI (SR leukemia): > 100 µM
TGI (SW-620 colon): > 100 µM
TGI (T-47D breast): 12.1 µM
TGI (TK-10 renal): > 100 µM
TGI (U251 CNS): 91.8 µM
TGI (UACC-257 melanoma): > 100 µM
TGI (UACC-62 melanoma): 42 µM
TGI (UO-31 renal): > 100 µM

COc1cc(/C=C2\C(=O)N(Cc3ccccc3)C(c3ccccc3)S2(=O)=O)cc(OC)c1OC (stereo unspecified)
TGI (786-0 renal): > 100 µM
TGI (A498 renal): > 100 µM
TGI (A549 NSCLC): > 100 µM
TGI (ACHN renal): > 100 µM
TGI (BT-549 breast): > 100 µM
TGI (CAKI-1 renal): > 100 µM
TGI (CCRF-CEM leukemia): > 100 µM
TGI (COLO 205 colon): 94 µM
TGI (DU-145 prostate): > 100 µM
TGI (EKVX NSCLC): > 100 µM
TGI (HCC-2998 colon): > 100 µM
TGI (HCT-116 colon): > 100 µM
TGI (HCT-15 colon): > 100 µM
TGI (HL-60(TB) leukemia): 44.9 µM
TGI (HOP-62 NSCLC): > 100 µM
TGI (HOP-92 NSCLC): > 100 µM
TGI (HS 578T breast): > 100 µM
TGI (HT29 colon): > 100 µM
TGI (K-562 leukemia): > 100 µM
TGI (KM12 colon): > 100 µM
TGI (LOX IMVI melanoma): > 100 µM
TGI (M14 melanoma): > 100 µM
TGI (MALME-3M melanoma): > 100 µM
TGI (MCF7 breast): > 100 µM
TGI (MDA-MB-231 breast): > 100 µM
TGI (MDA-MB-435): > 100 µM
TGI (MDA-N): > 100 µM
TGI (MOLT-4 leukemia): 14.7 µM
TGI (NCI-H226 lung): > 100 µM
TGI (NCI-H23 lung): > 100 µM
TGI (NCI-H460 lung): > 100 µM
TGI (NCI-H522 lung): > 100 µM
TGI (NCI/ADR-RES ovarian): > 100 µM
TGI (OVCAR-3 ovarian): > 100 µM
TGI (OVCAR-4 ovarian): > 100 µM
TGI (OVCAR-5 ovarian): > 100 µM
TGI (OVCAR-8 ovarian): > 100 µM
TGI (PC-3 prostate): > 100 µM
TGI (RXF 393 renal): > 100 µM
TGI (SF-268 CNS): > 100 µM
TGI (SF-295 CNS): > 100 µM
TGI (SK-MEL-2 melanoma): > 100 µM
TGI (SK-MEL-28 melanoma): > 100 µM
TGI (SK-MEL-5 melanoma): 51.8 µM
TGI (SK-OV-3 ovarian): > 100 µM
TGI (SN12C renal): > 100 µM
TGI (SNB-19 CNS): > 100 µM
TGI (SR leukemia): 65.5 µM
TGI (SW-620 colon): > 100 µM
TGI (T-47D breast): > 100 µM
TGI (TK-10 renal): > 100 µM
TGI (U251 CNS): > 100 µM
TGI (UACC-257 melanoma): > 100 µM
TGI (UACC-62 melanoma): > 100 µM
TGI (UO-31 renal): > 100 µM
